Measured values as given in patent US12285401B2, “Pharmaceutical composition comprising trimebutine or pharmaceutically acceptable salt thereof as an active ingredient for prevention or treatment of cancer” (DAEGU-GYEONGBUK MEDICAL INNOVATION FOUNDATION, priority 2019, dated 2025).

Columns and labels:
[1] = test system: A2780-SP cells (ovarian cancer stem cells); experiment: Cell viability assay (Cell-titer Glo), A2780-SP sphere cell viability; assay type: cell-based; details: for GI50: A2780-SP ovarian cancer stem cells, 1,500 cells per well, Cell-titer Glo; for viability of A2780-SP cells (ovarian cancer stem cells), result in words: 1500 cells, 7 days, Cell titer Glo
[2] = test system: A2780 cells (ovarian cancer cells); experiment: Cell viability assay (Cell-titer Glo), A2780 cell viability; assay type: cell-based; details: 3 days
BKCa channel = target: T1, BKCa channel (Homo sapiens, UniProt Q12791); experiment: Whole cell patch clamp recording, BKCa channel current in A2780-SP cells; assay type: cell-based; details: 10 μM, 5 minutes
T1 construct: K^+ current of the BK channel was measured by increasing the membrane voltage by 10 mV starting at −80 mV; endogenous in cells; host or cells: A2780-SP (ovarian cancer stem cells)
T1 sequence (Q12791 whole entry): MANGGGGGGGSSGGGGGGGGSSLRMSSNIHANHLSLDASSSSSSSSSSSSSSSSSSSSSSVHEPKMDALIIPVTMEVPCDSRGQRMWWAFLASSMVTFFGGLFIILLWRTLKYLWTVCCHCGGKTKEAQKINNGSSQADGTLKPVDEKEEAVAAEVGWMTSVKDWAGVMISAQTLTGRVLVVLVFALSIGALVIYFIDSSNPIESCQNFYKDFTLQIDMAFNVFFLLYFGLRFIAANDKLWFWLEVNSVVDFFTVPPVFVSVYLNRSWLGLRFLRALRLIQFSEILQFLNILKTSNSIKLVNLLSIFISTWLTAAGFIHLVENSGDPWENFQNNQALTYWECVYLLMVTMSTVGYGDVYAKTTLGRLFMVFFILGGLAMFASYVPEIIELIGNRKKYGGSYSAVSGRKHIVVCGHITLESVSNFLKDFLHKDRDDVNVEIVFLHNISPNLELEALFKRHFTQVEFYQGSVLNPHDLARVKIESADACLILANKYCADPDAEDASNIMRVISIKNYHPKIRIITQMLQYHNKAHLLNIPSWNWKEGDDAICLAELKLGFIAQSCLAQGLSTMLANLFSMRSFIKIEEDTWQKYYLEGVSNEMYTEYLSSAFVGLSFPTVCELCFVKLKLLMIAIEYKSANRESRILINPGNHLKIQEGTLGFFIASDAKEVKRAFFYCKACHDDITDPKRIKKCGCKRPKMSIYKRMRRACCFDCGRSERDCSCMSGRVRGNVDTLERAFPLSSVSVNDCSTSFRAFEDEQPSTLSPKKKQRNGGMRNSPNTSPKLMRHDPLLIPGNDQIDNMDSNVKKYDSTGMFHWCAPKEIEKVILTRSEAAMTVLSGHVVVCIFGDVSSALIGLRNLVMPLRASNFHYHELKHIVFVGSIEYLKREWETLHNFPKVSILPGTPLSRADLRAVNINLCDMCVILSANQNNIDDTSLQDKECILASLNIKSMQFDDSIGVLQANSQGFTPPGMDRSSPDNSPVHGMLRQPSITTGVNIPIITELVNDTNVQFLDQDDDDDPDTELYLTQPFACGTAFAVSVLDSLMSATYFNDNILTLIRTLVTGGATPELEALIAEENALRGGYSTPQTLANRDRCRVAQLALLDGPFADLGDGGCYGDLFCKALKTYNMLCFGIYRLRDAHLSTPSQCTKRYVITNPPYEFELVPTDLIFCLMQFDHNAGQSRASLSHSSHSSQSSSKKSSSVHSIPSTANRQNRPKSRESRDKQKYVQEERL

L-type Ca channel = experiment: Whole cell patch clamp recording, Ca channel current in A2780-SP cells; assay type: cell-based; details: 10 μM, 5 minutes
Na channel = experiment: Whole cell patch clamp recording, Na channel current in A2780-SP cells; assay type: cell-based; details: 10 μM, 5 minutes
ALDH, OCT4 and SOX2 = experiment: Western blotting of markers related to cancer stemness in A2780-SP cells; assay type: cell-based; details: 1 μM or 10 μM
Experimental: A2780-SP cells (ovarian cancer stem cells) were plated in an ultra-low attachment 6-well plate (Corning) at the density of 4×10^5 viable cells per well and cultured in a cancer stem cell medium. On the next day of culture, the medium was replaced with NBM (Neuro Basal Medium), and the cells were cultured for 16 hours in starvation. Then, the cells were treated with the compound of Example 1 at the concentration of 1 μM or 10 μM for 1 hour. The medium was replaced with a cancer stem cell medium containing the compound, and the cells were collected and cultured for an additional 30 minutes before being lysed in RiPA buffer. The extracted protein was separated by SDS-PAGE gel and transferred to a PVDF membrane for Western blotting. […]
Signals were developed on an enhanced chemiluminescence HRP substrate (Bio-Rad) and detected using LAS-3000 mini (Fuji film). The signals were quantified using Image J software (NIH Image).
In order to confirm the anticancer effect through the changes in the expressions of the markers related to sternness and the proteins related to survival and proliferation of cancer stem cells according to the treatment of the pharmaceutical composition containing trimebutine of the present invention, the expression levels of various factors were analyzed by Western blotting. […]

β-catenin = β-catenin S552 phosphorylation and translocation experiments in A2780-SP cells; assay type: cell-based; details: 1 μM or 10 μM, 24 hours
Experimental: A2780-SP cells (ovarian cancer stem cells) were plated in an ultra-low attachment round bottom 6-well plate (Corning) at the density of 4×10^5 viable cells per well and cultured in a cancer stem cell medium (CM). The cancer stem cell medium is composed of a neurobasal medium supplemented with 20 ng/ml of bFGF, 10 ng/ml of EGF, 2.5 ng/ml of amphotericin B, HEPES, Glutamax and B27. On the next day of culture, the cells were treated with the compound at the concentration of 1 μM or 10 μM for 24 hours. The control group was treated in the same manner as above for 24 hours with a neurobasal medium (NBM) and a cancer stem cell medium (CM) containing DMSO.
To measure the degree of phosphorylation of β-catenin S552, 100 μl of RIPA buffer (containing 1× protease inhibitor and phosphatase inhibitor) was added to the prepared cells, and the cells were disrupted by shaking once every 5 minutes for a total of 15 minutes. The disrupted cells were centrifuged at 13,000 rpm for 15 minutes to collect only the supernatant protein, and the obtained protein was quantified using a BCA protein quantification kit (Pierece, MA, USA), and a total of 15 μg of the protein was used for Western blotting. NE-PER Nuclear and Cytoplasmic Extraction Reagents (Thermoscientific, #78833) were used to separate cytoplasmic and nuclear proteins. […]

A2780-SP xenograft = A2780-SP xenograft model, tumor formation; assay type: in vivo; details: 3 mg/kg, intraperitoneal, nude mouse
Experimental: (§1) In order to confirm the inhibitory effect of the pharmaceutical composition of Examples of the present invention in the ovarian cancer stem cell tumor model, each nude mouse was subcutaneously inoculated with 2×10^6 A2780-SP (ovarian cancer stem cell line) cells. After the implantation, the size of tumor formation was measured using a caliper. When the tumor volume became 100 mm^3 or more, the experimental group was divided into the control group (vehicle) and the pharmaceutical composition of Examples of the present invention treated group (3 mg/kg of trimebutine) and the drug was administered to confirm the effect of the drug. The drug was administered […] through intraperitoneal administration, and the size of the tumor and the weight of the mouse were measured at intervals of 3 to 4 days. Then, all mice were euthanized on the day of the end of the experiment, and finally the size of the tumor and the weight were measured.
(§2) In order to confirm the ovarian cancer treatment effect of the pharmaceutical composition containing trimebutine of the present invention in vivo, an animal model experiment was performed. The specific experimental method is the same as the animal experiment method described in Experimental Protocol 5.

[3] = A2780-SP xenograft model, change in body weight; assay type: in vivo; details: 3 mg/kg, intraperitoneal, nude mouse
Experimental: as §1, §2

COC(=O)C1=C(C)NC(C)=C(C(=O)OCCN2CCN(C(c3ccccc3)c3ccccc3)CC2)C1c1cccc([N+](=O)[O-])c1 (centres unmarked) [Comparative Example 1 (manidipine), Manidipine]
GI50 [1]: 2.7 µM
GI50 [2]: ~9.67 µM

CCC(COC(=O)c1cc(OC)c(OC)c(OC)c1)(c1ccccc1)N(C)C (centres unmarked) [Example 1, Trimebutine]
viability of A2780-SP cells (ovarian cancer stem cells), result in words [1]: reduced the viability
viability of A2780-SP cells (ovarian cancer stem cells), result in words ([1]; listed as trimebutine): excellent effect of inhibiting the survival of ovarian cancer stem cells
GI50 [1]: 0.401 µM
selectivity for cancer stem cells rather than cancer cells ([1]; A2780-SP versus A2780, FIGS. 1F and 1G compared with FIGS. 1A to 1E): excellent selectivity
amplitude of BKCa current (BKCa channel): remarkably suppressed
amplitude of Ca current (L-type Ca channel): remarkably suppressed
amplitude of Na current (Na channel): remarkably suppressed
expressions of ALDH, OCT4 and SOX2, the markers related to cancer stemness (ALDH, OCT4 and SOX2): reduced
degree of β-catenin S552 phosphorylation (β-catenin): reduced
translocation of β-catenin into the nucleus (β-catenin): reduced
tumor formation (A2780-SP xenograft): specifically inhibited tumor formation
change in body weight [3]: no change in body weight

CCOC(=O)C1=C(C)NC(C)=C(C(=O)OCC)C1c1ccccc1/C=C/C(=O)OC(C)(C)C [Comparative Example 1 (lacidipine), Lacidipine]
GI50 [1]: 2.9 µM

COc1ccc(CN2CCN(C(c3ccc(F)cc3)c3ccc(F)cc3)CC2)c(OC)c1OC [Comparative Example 1 (lomerizine), Lomerizine]
GI50 [1]: 2.95 µM

COC(=O)C1=C(C)NC(C)=C(C(=O)O[C@@H]2CCCN(Cc3ccccc3)C2)[C@@H]1c1cccc([N+](=O)[O-])c1 (racemic) [Comparative Example 1 (benidipine), Benidipine]
GI50 [1]: 2.65 µM
